Values joined by “and” are separate entries in the source; they are usually repeats but may differ in a detail not shown here. Identical values can stand only once. Like-named read-outs stand apart in the source and are kept apart here.
Experiments:
[1] = molecular target: T1, SMARCA4 (Homo sapiens, UniProt P51532); assay: Ex vivo human whole blood assay, SMARCA4; type: cell-based; parameters: endogenous in cells; conditions: for HillSlope (best-fit value): four-parameter fit; for Bottom (best-fit value) / Span (best-fit value) / Top (best-fit value): four-parameter fit of % protein remaining
T1 sequence (P51532 whole entry): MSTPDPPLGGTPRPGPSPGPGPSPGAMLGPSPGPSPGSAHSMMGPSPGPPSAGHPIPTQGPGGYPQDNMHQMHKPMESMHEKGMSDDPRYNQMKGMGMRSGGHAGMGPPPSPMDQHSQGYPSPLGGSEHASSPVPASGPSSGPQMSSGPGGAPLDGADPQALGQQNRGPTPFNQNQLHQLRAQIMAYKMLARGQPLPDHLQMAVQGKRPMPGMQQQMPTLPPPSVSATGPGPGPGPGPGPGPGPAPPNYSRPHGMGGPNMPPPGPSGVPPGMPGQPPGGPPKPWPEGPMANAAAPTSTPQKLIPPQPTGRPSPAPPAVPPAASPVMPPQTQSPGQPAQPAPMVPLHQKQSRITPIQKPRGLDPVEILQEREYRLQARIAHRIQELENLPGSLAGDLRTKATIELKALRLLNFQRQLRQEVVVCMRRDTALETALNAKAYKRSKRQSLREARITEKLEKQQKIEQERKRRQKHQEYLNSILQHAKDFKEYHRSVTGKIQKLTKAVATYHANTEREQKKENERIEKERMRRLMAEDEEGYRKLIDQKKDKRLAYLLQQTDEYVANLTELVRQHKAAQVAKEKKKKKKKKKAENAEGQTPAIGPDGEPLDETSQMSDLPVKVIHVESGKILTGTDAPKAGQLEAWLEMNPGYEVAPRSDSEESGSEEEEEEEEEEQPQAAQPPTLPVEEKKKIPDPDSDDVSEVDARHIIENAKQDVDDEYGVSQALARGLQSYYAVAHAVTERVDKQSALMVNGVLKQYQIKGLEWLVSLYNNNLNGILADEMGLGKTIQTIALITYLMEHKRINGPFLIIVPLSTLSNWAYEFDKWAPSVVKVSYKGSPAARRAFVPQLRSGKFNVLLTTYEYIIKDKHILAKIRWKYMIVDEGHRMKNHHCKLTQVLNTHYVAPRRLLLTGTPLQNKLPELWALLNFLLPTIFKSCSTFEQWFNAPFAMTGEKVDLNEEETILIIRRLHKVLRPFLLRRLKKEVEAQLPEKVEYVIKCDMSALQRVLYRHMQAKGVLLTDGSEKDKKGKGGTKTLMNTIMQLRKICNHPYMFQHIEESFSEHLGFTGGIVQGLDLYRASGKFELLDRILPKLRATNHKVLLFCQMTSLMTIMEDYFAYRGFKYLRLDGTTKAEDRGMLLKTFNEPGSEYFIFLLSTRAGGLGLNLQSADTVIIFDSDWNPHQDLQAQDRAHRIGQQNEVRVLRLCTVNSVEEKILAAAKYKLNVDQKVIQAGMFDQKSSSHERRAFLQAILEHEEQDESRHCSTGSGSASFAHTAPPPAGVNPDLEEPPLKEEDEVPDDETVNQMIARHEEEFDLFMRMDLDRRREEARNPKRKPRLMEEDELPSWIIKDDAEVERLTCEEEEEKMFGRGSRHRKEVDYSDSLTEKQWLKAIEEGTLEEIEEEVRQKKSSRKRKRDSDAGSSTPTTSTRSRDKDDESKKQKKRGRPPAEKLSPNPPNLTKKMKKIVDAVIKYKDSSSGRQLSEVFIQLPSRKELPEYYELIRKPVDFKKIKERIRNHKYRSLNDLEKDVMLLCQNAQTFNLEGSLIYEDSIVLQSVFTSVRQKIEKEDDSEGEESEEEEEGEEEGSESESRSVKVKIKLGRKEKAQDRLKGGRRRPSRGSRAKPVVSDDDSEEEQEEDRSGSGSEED
Experimental: The assay was performed on human whole blood from three healthy donors, purchased from the Austrian Red Cross who always obtain samples under informed consent. […] Subsequently, peripheral blood mononucleated cells (PBMCs) were isolated from individual aliquots using SepMate Tubes (StemCell) and Lymphoprep (StemCell) medium according to the manufacturer’s instructions and protein lysates were prepared using MSD Lysis buffer (Mesocale Discovery) supplemented with 1:100 Halt Phosphatase-Protease Inhibitor Cocktail (Thermo Fisher), 0.5 µl/ml benzonase (Novagen) and 10 mM DTT. SMARCA2 and SMARCA4 protein levels were determined using capillary electrophoresis (Bio-Techne) according to manufacturer’s instructions. Incubation with primary antibodies for SMARCA2 (Cell Signalling #11966 clone D9E8B RRID:AB_2797783 1:25), SMARCA4 (Abcam #ab110641 clone EPNCIR111A RRID:AB_10861578 1:25) and GAPDH (Abcam, #ab9485 RRID:AB_307275 1:1000) were performed for 30 min.

[2] = molecular target: T1, SMARCA4; assay: SMARCA4 capillary electrophoresis protein assay in other cell lines (HCT116, LU99, HCC-364, HCT-15, HCC4006, SK-N-AS); type: cell-based; parameters: endogenous in cells; host or cells: RKO, HCT116, LU99, HCC-364, HCT-15, HCC4006, SK-N-AS; conditions: for Bottom (best-fit value, % protein remaining) / DC50 / HillSlope: four-parameter fit; for LogEC50: log10 of concentration in mol/l; for DC50: protein degradation, read-out: EC50 (the source's name)
Experimental: 130,000–200,000 cells were seeded in 24-well plates and incubated until settled down or overnight. Compounds were dissolved in DMSO and added to cells in indicated concentrations using a digital dispenser following an optional media change. […] For SMARCA2/4 half-life determination, 150,000 or 200,000 cells were seeded in 24-well plates. […] For SMARCA2/4 re-synthesis measurements, 200,000 cells were seeded in 24-well plates. […] Medium was removed, cells were washed with PBS and lysed with 80 µl Lysis Buffer (MSD Tris Lysis Buffer (#R60TX-2) + Halt Inhibitor Cocktail (100x) + Benzonase 0.5 µL/ml). Samples were frozen at −80 °C and thawed at room temperature before use. Samples were transferred to a V-bottom plate and insoluble debris was pelleted by centrifugation for 5 min at maximum speed. The supernatant was transferred to a fresh plate. Master Mix and Ladder were prepared according to manufacturer’s instructions for 12–230 kDa Wes Separation Module, 8 × 25 capillary cartridges, Protein Simple #SM-W004 with Anti-Rabbit Detection Module for Wes, Peggy Sue or Sally Sue, Protein Simple #DM-001. 4.8 µl lysate were mixed with 1.2 µl Master Mix to achieve a protein concentration of ~0.5 µg/µl. […] Wes plates were prepared and run according to manufacturer’s instructions. Proteins were quantified with accompanying Compass Software. SMARCA2/4 protein levels were normalised to GAPDH. […] Where applicable, curves were fitted using a 4-parametric logistic model.

With `Cc1ncsc1-c1ccc(C(CCC(C)CCN2CCC(c3ccc4c(c3)n(C3CCCC3)c3nc(=O)c5c(Br)cccc5n43)CC2)NC(=O)C2CC(O)CN2C(=O)C(NC(=O)C2(F)CC2)C(C)(C)C)cc1` (stereo not drawn) [ACBI2] the “% protein remaining, SMARCA4” value ([1]; Donor 1, log10[concentration (mol/l)] -6) was 46.277% and 56.0869% and 48.4826%, the “% protein remaining, SMARCA4” value ([1]; Donor 1, log10[concentration (mol/l)] -6.47712) was 107.389% and 70.5686% and 73.1116% and the “% protein remaining, SMARCA4” value ([1]; Donor 1, log10[concentration (mol/l)] -6.95424) was 84.4427% and 113.429% and 101.258%. For the same compound, the “% protein remaining, SMARCA4” value ([1]; Donor 1, log10[concentration (mol/l)] -7.43136) was 119.708% and 145.145% and 104.637%, the “% protein remaining, SMARCA4” value ([1]; Donor 1, log10[concentration (mol/l)] -7.90848) was 127.921% and 114.745% and 82.4839% and the “% protein remaining, SMARCA4” value ([1]; Donor 1, log10[concentration (mol/l)] -8.38561) was 104.578% and 95.4334% and 80.9398%. The “HillSlope (best-fit value)” value ([1]; Donor 1 SMARCA4) was -2.117, the “Bottom (best-fit value)” value ([1]; Donor 1 SMARCA4) was 40.33% and the “Span (best-fit value)” value ([1]; Donor 1 SMARCA4) was 66.56%. For the same compound, the “Top (best-fit value)” value ([1]; Donor 1 SMARCA4) was 106.9%, the “% protein remaining, SMARCA4” value ([1]; Donor 2, log10[concentration (mol/l)] -6) was 50.102% and 76.224% and 84.3004% and the “% protein remaining, SMARCA4” value ([1]; Donor 2, log10[concentration (mol/l)] -6.47712) was 93.5183% and 92.0167% and 75.7642%. For the same compound, the “% protein remaining, SMARCA4” value ([1]; Donor 2, log10[concentration (mol/l)] -6.95424) was 80.3377% and 113.951% and 102.967%, the “% protein remaining, SMARCA4” value ([1]; Donor 2, log10[concentration (mol/l)] -7.43136) was 130.957% and 130.042% and 111.295% and the “% protein remaining, SMARCA4” value ([1]; Donor 2, log10[concentration (mol/l)] -7.90848) was 121.533% and 102.344% and 98.5667%. For the same compound, the “% protein remaining, SMARCA4” value ([1]; Donor 2, log10[concentration (mol/l)] -8.38561) was 105.689% and 139.901% and 105.419%, the “% protein remaining, SMARCA4” value ([1]; Donor 2, log10[concentration (mol/l)] -8.86273) was 54.3169% and 99.7184% and 98.048% and the “HillSlope (best-fit value)” value ([1]; Donor 2 SMARCA4) was -2.11. The “Bottom (best-fit value)” value ([1]; Donor 2 SMARCA4) was 67.18%, the “Span (best-fit value)” value ([1]; Donor 2 SMARCA4) was 40.18% and the “Top (best-fit value)” value ([1]; Donor 2 SMARCA4) was 107.4%. For the same compound, the “% protein remaining, SMARCA4” value ([1]; Donor 3, log10[concentration (mol/l)] -6.47712) was 88.0329% and 79.2762% and 67.3837%, the “% protein remaining, SMARCA4” value ([1]; Donor 3, log10[concentration (mol/l)] -6.95424) was 92.9994% and 98.4764% and 74.8427% and the “% protein remaining, SMARCA4” value ([1]; Donor 3, log10[concentration (mol/l)] -7.43136) was 95.6107% and 82.1879% and 123.028%. For the same compound, the “% protein remaining, SMARCA4” value ([1]; Donor 3, log10[concentration (mol/l)] -7.90848) was 125.23% and 122.739% and 76.3116%, the “% protein remaining, SMARCA4” value ([1]; Donor 3, log10[concentration (mol/l)] -8.38561) was 96.5427% and 109.291% and 74.8647% and the “% protein remaining, SMARCA4” value ([1]; Donor 3, log10[concentration (mol/l)] -8.86273) was 92.1949% and 111.194% and 102.774%. The “HillSlope (best-fit value)” value ([1]; Donor 3 SMARCA4) was -1.413, the “Bottom (best-fit value)” value ([1]; Donor 3 SMARCA4) was 61.66% and the “Span (best-fit value)” value ([1]; Donor 3 SMARCA4) was 39.83%. For the same compound, the “Top (best-fit value)” value ([1]; Donor 3 SMARCA4) was 101.5%, the “SMARCA4 degradation in human whole blood” value ([1]; up to a top concentration of 1 µM) was at most 50% and the “Bottom (best-fit value, % protein remaining)” value ([2]; HCC4006_SM4) was 9.858%. For the same compound, the “% protein remaining” value ([2]; HCC4006_SM4, log10[concentration (mol/l)] -6) was 8.466% and 14.8549% and 6.254%, the “% protein remaining” value ([2]; HCC4006_SM4, log10[concentration (mol/l)] -8) was 107.17% and 168.214% and 84.8869% and the “% protein remaining” value ([2]; HCC4006_SM4, log10[concentration (mol/l)] -10) was 87.4945% and 108.459% and 92.3747%. For the same compound, the LogEC50 ([2]; HCC4006_SM4) was -7.029, the DC50 ([2]; HCC4006_SM4) was 93.5 nM and the “Bottom (best-fit value, % protein remaining)” value ([2]; HCC-364_SM4) was 3.161%. For the same compound, the HillSlope ([2]; HCC-364_SM4) was -1.653, the “% protein remaining” value ([2]; HCC-364_SM4, log10[concentration (mol/l)] -6) was 3.167% and 1.374% and 3.983% and the “% protein remaining” value ([2]; HCC-364_SM4, log10[concentration (mol/l)] -7) was 9.937% and 9.321% and 6.672%. For the same compound, the “% protein remaining” value ([2]; HCC-364_SM4, log10[concentration (mol/l)] -8) was 73.4926% and 97.1764% and 52.0353%, the “% protein remaining” value ([2]; HCC-364_SM4, log10[concentration (mol/l)] -9) was 95.3509% and 123.202% and 101.968% and the “% protein remaining” value ([2]; HCC-364_SM4, log10[concentration (mol/l)] -10) was 89.9664% and 104.013% and 115.065%. For the same compound, the LogEC50 ([2]; HCC-364_SM4) was -7.78, the DC50 ([2]; HCC-364_SM4) was 16.6 nM and the “Bottom (% protein remaining, four-parameter fit)” value ([2]; HCT116, SM4) was 25.06%. For the same compound, the “HillSlope (protein remaining)” value ([2]; HCT116, SM4) was -2.072, the “Top (% protein remaining, four-parameter fit)” value ([2]; HCT116, SM4) was 134.1% and the “% protein remaining” value ([2]; HCT116, SM4, conc 9.54e-12 mol/l) was 111.196% and 129.494%. The “% protein remaining” value ([2]; HCT116, SM4, conc 3.81e-11 mol/l) was 120.316% and 148.32%, the “% protein remaining” value ([2]; HCT116, SM4, conc 1.53e-10 mol/l) was 129.784% and 140.879% and the “% protein remaining” value ([2]; HCT116, SM4, conc 6.1e-10 mol/l) was 129.281% and 147.637%. For the same compound, the “% protein remaining” value ([2]; HCT116, SM4, conc 2.44e-9 mol/l) was 120.666% and 159.63%, the “% protein remaining” value ([2]; HCT116, SM4, conc 9.77e-9 mol/l) was 125.866% and 131.203% and the “% protein remaining” value ([2]; HCT116, SM4, conc 3.91e-8 mol/l) was 69.9313% and 71.3683%. The “% protein remaining” value ([2]; HCT116, SM4, conc 1.56e-7 mol/l) was 36.8806% and 32.4224%, the “% protein remaining” value ([2]; HCT116, SM4, conc 6.25e-7 mol/l) was 24.622% and 20.2431% and the “% protein remaining” value ([2]; HCT116, SM4, conc 2.5e-6 mol/l) was 26.4349% and 21.0447%. For the same compound, the HillSlope ([2]; HCT-15_SM4) was -0.3445, the “% protein remaining” value ([2]; HCT-15_SM4, log10[concentration (mol/l)] -6) was 18.6748% and 17.1977% and 14.8633% and the “% protein remaining” value ([2]; HCT-15_SM4, log10[concentration (mol/l)] -7) was 73.6571% and 71.0762% and 61.1459%. The “% protein remaining” value ([2]; HCT-15_SM4, log10[concentration (mol/l)] -8) was 98.6414% and 84.1205% and 64.0182%, the “% protein remaining” value ([2]; HCT-15_SM4, log10[concentration (mol/l)] -9) was 109.23% and 94.5032% and 92.8527% and the “% protein remaining” value ([2]; HCT-15_SM4, log10[concentration (mol/l)] -10) was 99.1975% and 103.016%. For the same compound, the “Bottom (best-fit value, % protein remaining)” value ([2]; LU99_SM4) was 6.337%, the HillSlope ([2]; LU99_SM4) was -1.201 and the “% protein remaining” value ([2]; LU99_SM4, log10[concentration (mol/l)] -8) was 52.7226% and 80.027% and 88.2243% and 72.2723%. For the same compound, the “% protein remaining” value ([2]; LU99_SM4, log10[concentration (mol/l)] -9) was 95.2248% and 87.3538% and 102.946% and 96.8042%, the “% protein remaining” value ([2]; LU99_SM4, log10[concentration (mol/l)] -10) was 95.6247% and 91.3% and 105.138% and 100.656% and the LogEC50 ([2]; LU99_SM4) was -7.559. The DC50 ([2]; LU99_SM4) was 27.6 nM, the “Bottom (best-fit value, % protein remaining)” value ([2]; SK-N-AS_SM4) was 7.287% and the HillSlope ([2]; SK-N-AS_SM4) was -0.8189. The “% protein remaining” value ([2]; SK-N-AS_SM4, log10[concentration (mol/l)] -6) was 10.7051% and 13.0346%, the “% protein remaining” value ([2]; SK-N-AS_SM4, log10[concentration (mol/l)] -8) was 53.489% and 73.7834% and the “% protein remaining” value ([2]; SK-N-AS_SM4, log10[concentration (mol/l)] -9) was 84.3752% and 77.8596%. For the same compound, the “% protein remaining” value ([2]; SK-N-AS_SM4, log10[concentration (mol/l)] -10) was 91.2323% and 74.8856%, the LogEC50 ([2]; SK-N-AS_SM4) was -7.454 and the DC50 ([2]; SK-N-AS_SM4) was 35.2 nM.
